Reference: BindingDB's records for patent US11547697 (Millennium Pharmaceuticals, 2023)

Assays:
Assay in all cases: Inhibition Assay of PI3K
[1] = biological target: Phosphatidylinositol 4,5-bisphosphate 3-kinase catalytic subunit gamma isoform (Homo sapiens, UniProt P48736)
[2] = biological target: Phosphatidylinositol 4,5-bisphosphate 3-kinase catalytic subunit beta isoform (Homo sapiens, UniProt P42338)
[3] = biological target: T1, Phosphatidylinositol 4,5-bisphosphate 3-kinase catalytic subunit delta isoform (Homo sapiens, UniProt O00329)
T1 sequence (O00329 whole entry): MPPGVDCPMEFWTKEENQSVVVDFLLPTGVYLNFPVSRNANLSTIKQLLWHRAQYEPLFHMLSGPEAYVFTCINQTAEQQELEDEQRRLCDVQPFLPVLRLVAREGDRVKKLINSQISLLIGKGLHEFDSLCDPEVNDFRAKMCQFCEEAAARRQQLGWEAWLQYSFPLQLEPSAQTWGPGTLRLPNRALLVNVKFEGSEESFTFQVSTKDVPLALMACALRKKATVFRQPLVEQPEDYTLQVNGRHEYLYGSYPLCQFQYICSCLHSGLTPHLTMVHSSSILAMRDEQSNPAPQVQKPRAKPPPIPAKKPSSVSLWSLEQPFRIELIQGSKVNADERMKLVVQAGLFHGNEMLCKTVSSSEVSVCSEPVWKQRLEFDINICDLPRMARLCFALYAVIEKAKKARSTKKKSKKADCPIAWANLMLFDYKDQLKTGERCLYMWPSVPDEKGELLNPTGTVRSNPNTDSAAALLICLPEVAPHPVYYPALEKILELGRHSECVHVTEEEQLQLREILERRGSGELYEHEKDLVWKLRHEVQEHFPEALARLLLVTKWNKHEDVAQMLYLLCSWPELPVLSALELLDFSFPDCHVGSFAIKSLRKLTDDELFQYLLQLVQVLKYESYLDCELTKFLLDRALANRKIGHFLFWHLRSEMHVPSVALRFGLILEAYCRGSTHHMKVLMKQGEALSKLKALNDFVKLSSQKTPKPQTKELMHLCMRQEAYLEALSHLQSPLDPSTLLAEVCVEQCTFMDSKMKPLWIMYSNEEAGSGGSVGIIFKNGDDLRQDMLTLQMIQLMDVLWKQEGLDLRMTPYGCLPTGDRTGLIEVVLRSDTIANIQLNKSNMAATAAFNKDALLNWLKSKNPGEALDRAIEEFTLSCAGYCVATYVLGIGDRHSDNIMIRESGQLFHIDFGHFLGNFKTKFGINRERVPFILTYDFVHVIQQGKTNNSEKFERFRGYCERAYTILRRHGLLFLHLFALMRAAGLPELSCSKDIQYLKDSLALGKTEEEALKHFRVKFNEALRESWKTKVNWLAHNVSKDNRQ

Phosphatidylinositol 4,5-bisphosphate 3-kinase catalytic subunit beta isoform, sequence (P42338 whole entry, canonical isoform): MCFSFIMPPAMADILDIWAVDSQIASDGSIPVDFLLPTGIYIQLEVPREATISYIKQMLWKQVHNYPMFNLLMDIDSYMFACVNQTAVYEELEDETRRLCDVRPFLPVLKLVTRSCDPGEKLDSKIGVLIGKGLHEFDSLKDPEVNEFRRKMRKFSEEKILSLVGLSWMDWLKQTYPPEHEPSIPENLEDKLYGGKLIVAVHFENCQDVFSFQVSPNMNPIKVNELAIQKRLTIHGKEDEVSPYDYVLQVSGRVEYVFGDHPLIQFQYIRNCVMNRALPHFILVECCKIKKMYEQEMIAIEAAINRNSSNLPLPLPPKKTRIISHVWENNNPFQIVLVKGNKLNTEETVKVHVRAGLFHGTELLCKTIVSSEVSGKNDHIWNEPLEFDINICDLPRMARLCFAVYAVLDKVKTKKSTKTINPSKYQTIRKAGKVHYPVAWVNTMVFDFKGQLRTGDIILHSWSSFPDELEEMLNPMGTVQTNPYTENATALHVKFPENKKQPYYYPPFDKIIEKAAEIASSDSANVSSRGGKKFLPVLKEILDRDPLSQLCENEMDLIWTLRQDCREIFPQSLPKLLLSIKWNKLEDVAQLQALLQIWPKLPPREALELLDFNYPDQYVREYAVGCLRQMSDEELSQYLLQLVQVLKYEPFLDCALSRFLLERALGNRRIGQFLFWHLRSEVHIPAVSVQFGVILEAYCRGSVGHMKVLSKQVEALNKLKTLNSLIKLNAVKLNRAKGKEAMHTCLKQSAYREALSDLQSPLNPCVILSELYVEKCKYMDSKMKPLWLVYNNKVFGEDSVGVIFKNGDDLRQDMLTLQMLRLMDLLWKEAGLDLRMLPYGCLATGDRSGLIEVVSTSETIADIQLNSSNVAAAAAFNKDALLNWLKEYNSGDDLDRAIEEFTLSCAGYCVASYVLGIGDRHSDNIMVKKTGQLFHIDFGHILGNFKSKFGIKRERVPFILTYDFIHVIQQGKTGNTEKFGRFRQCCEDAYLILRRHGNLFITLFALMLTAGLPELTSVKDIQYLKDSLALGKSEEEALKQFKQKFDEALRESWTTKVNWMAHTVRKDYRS
Phosphatidylinositol 4,5-bisphosphate 3-kinase catalytic subunit gamma isoform, sequence (P48736 whole entry, canonical isoform): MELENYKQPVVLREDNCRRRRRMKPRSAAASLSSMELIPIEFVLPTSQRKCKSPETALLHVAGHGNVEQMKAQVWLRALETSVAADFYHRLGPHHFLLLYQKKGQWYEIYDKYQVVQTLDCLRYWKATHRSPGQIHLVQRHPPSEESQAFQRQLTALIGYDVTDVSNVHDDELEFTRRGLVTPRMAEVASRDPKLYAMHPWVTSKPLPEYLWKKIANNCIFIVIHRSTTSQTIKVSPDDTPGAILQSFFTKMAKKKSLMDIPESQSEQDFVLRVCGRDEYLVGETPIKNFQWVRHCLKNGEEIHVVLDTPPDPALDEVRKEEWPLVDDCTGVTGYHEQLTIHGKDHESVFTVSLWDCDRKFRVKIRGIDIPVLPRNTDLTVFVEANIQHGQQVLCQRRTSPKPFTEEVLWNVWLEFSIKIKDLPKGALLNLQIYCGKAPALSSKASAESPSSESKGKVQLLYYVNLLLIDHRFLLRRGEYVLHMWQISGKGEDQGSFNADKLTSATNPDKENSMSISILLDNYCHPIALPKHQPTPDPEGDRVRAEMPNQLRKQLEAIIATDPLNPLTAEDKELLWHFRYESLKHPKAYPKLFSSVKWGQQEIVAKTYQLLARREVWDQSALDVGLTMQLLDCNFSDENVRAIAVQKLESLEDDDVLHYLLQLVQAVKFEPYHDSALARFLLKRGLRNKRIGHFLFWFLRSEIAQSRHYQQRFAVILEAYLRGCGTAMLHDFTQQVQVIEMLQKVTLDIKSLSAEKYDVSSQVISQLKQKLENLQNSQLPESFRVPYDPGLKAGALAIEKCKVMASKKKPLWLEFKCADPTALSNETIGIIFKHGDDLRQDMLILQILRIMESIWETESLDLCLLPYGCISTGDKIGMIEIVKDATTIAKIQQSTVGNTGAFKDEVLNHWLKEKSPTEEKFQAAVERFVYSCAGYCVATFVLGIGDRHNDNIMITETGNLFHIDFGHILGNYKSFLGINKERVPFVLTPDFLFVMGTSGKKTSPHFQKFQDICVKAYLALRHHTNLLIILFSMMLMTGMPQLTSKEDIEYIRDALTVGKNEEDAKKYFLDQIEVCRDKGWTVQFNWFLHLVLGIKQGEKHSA

Structure (SMILES)	IC50 [1] [µM]	IC50 [2] [µM]	IC50 [3] [µM]
Nc1nc2cc(-c3ccc4ncn(C5CCOCC5)c4c3)ccc2o1 [US11547697, Compound 48]	> 10	> 10	> 10
Nc1nc2cc(-c3ccc4ncc(N5CCOCC5)n4c3)ccc2o1 [US11547697, Compound 53]	> 10	> 10	> 10
Nc1nc2ccc(-c3ccc4ncn(C5CCOCC5)c(=O)c4c3)cc2o1 [US11547697, Compound 63]	> 10	> 10	> 10
CC(=O)N1CCC(n2cnc3ccc(-c4ccc5oc(N)nc5c4)cc3c2=O)CC1 [US11547697, Compound 66]	> 10		> 10
CCN1CCC(n2cnc3ccc(-c4ccc5oc(N)nc5c4)cc3c2=O)CC1 [US11547697, Compound 73]	> 10		> 10
CN1CCN(c2nc3cc(-c4ccc5oc(N)nc5c4)ccc3c(=O)n2C)CC1 [US11547697, Compound 79]	> 10	> 10	> 10
Cn1c(N2CCOCC2)nc2cc(-c3ccc4oc(N)nc4c3)ccc2c1=O [US11547697, Compound 80]	> 10	> 10	> 10
Nc1nc2cc(-c3ccc4ncc(C(=O)N5CCOCC5)cc4c3)ccc2o1 [US11547697, Compound 97]	> 10	> 10	> 10
Nc1nc2cc(-c3ccc4ncc(C(=O)N5CCNCC5)n4c3)ccc2o1 [US11547697, Compound 111]	> 10		> 10
CN1CCN(C(=O)c2cnc3cnc(-c4ccc5oc(N)nc5c4)cn23)CC1 [US11547697, Compound 123]	> 10	> 10	> 10
CN1CCCN(C(=O)c2cnc3ccc(-c4ccc5oc(N)nc5c4)cn23)CC1 [US11547697, Compound 140]	> 10		> 10
CC1CN(C(=O)c2cnc3ccc(-c4ccc5oc(N)nc5c4)cn23)CC(C)N1 (stereo not given) [US11547697, Compound 142]	> 10	> 10	> 10
CN1CCN(C(=O)c2cnc3ccc(-c4ccc5sc(N)nc5c4)cn23)CC1 [US11547697, Compound 144]	> 10		> 10
CN1CCN(C(=O)c2cnc3ccc(-c4ccc5nc(N)sc5c4)cn23)CC1 [US11547697, Compound 146]	> 10		> 10
Nc1nc2cc(-c3ccc4ncc(-c5ccnc(N6CCOCC6)c5)nc4c3)ccc2o1 [US11547697, Compound 150]	> 10	> 10	> 10
CN1CCN(C(=O)c2cnc3ccc(-c4ccc5oc(N)nc5c4)cc3n2)CC1 [US11547697, Compound 157]	> 10	> 10	> 10
Nc1nc2cc(-c3ccc4ncc(C(=O)N5CCOCC5)nc4c3)ccc2o1 [US11547697, Compound 158]	> 10	> 10	> 10
CC(C)N1CCN(C(=O)c2cnc3ccc(-c4ccc5oc(N)nc5c4)cn23)CC1 [US11547697, Compound 160]	> 10		> 10
Nc1nc2cc(-c3ccc4ncc(-c5ccc(N6CCOCC6)nc5)nc4c3)ccc2o1 [US11547697, Compound 167]	> 10	> 10	> 10
Nc1nc2cc(-c3ccc4ncc(-c5ccccc5)nc4c3)ccc2o1 [US11547697, Compound 180]	> 10	> 10	> 10
Cc1ncccc1-c1cnc2ccc(-c3ccc4oc(N)nc4c3)cc2n1 [US11547697, Compound 185]	> 10	> 10	> 10
Nc1nc2cc(-c3ccc4ncc(C(=O)N5CCC(N)CC5)n4c3)ccc2o1 [US11547697, Compound 204]	> 10		> 10
Nc1nc2cc(-c3ccc4ncn(C5CCC5)c(=O)c4c3)ccc2o1 [US11547697, Compound 205]	> 10	> 10	> 10
Nc1ncc(-c2cnc3ccc(-c4ccc5oc(N)nc5c4)cc3n2)cn1 [US11547697, Compound 210]	> 10	> 10	> 10

Structure (SMILES)	IC50 [1] [µM]	IC50 [2] [µM]	IC50 [3] [µM]
CCN(CC)CCn1cnc2ccc(-c3ccc4oc(N)nc4c3)cc2c1=O [US11547697, Compound 224]	> 10	> 10	> 10
Nc1nc2cc(-c3ccc4ncn(C5CCCC5)c(=O)c4c3)ccc2o1 [US11547697, Compound 256]	> 10	> 10	> 10
NC(=O)[C@@H]1CCCN1c1cnc2ccc(-c3ccc4oc(N)nc4c3)cc2n1 [US11547697, Compound 257]	> 10	> 10	> 10
CN1CCN(CCn2cnc3ccc(-c4ccc5oc(N)nc5c4)cc3c2=O)CC1 [US11547697, Compound 280]	> 10	> 10	> 10
CCN(CC)CCCn1cnc2ccc(-c3ccc4oc(N)nc4c3)cc2c1=O [US11547697, Compound 281]	> 10	> 10	
Nc1nc2cc(-c3ccc4ncn(CCCN5CCOCC5)c(=O)c4c3)ccc2o1 [US11547697, Compound 290]	> 10	> 10	> 10
CN1CCN(CCCn2cnc3ccc(-c4ccc5oc(N)nc5c4)cc3c2=O)CC1 [US11547697, Compound 291]	> 10	> 10	> 10
CN(C)CCn1cnc2ccc(-c3ccc4oc(N)nc4c3)cc2c1=O [US11547697, Compound 292]	> 10	> 10	> 10
Nc1nc2cc(-c3ccc4nnc(-c5cccnc5)n4c3)ccc2o1 [US11547697, Compound 300]	> 10		> 10
Nc1nc2ccc(-c3ccc4nnc(-c5cccnc5)n4c3)cc2o1 [US11547697, Compound 301]	> 10		> 10
CN1CCN(C2CN(C(=O)c3cnc4ccc(-c5ccc6oc(N)nc6c5)cn34)C2)CC1 [US11547697, Compound 303]	> 10	> 10	
CN(C)C1CCN(C(=O)c2cnc3ccc(-c4ccc5oc(N)nc5c4)cn23)CC1 [US11547697, Compound 304]	> 10	> 10	> 10
Nc1nc2ccc(-c3ccc4nnc(C(=O)N5CCCC5)n4c3)cc2o1 [US11547697, Compound 305]	> 10	> 10	> 10
C[C@H]1CN(c2cnc3ccc(-c4ccc5sc(N)nc5c4)cc3n2)CCN1 [US11547697, Compound 307]	> 10		> 10
Cc1nc(NC(=O)N2CCC[C@H]2C(N)=O)sc1-c1ccc2oc(N)nc2c1 [US11547697, Compound 311]	> 10	> 10	> 10
COC(=O)N1CCC(n2ncc3c(N4CCOCC4)nc(-c4ccc5oc(N)nc5c4)nc32)CC1 [US11547697, Compound 330]	> 10		> 10
Cc1cc2oc(N)nc2cc1-c1ccc2ncc(N3CCN[C@@H](C)C3)nc2c1 [US11547697, Compound 351]	> 10		> 10
Cc1cc2oc(N)nc2cc1-c1ccc2ncc(N3CC(N4CCOCC4)C3)nc2c1 [US11547697, Compound 353]	> 10	> 10	> 10
Nc1nc2cc(-c3ccc4ncc(C(=O)N5CCOCC5)n4c3)c(Cl)cc2o1 [US11547697, Compound 370]	> 10	> 10	> 10
Nc1nc2cc(-c3ccc4ncc(N5CC(N6CCOCC6)C5)nc4c3)c(Cl)cc2o1 [US11547697, Compound 371]	> 10		> 10
Cc1c(-c2ccc3oc(N)nc3c2)ccc2ncc(N3CC(N4CCOCC4)C3)nc12 [US11547697, Compound 383]	> 10	> 10	> 10
CN1CCC(c2cnc3ccc(-c4ccc5oc(N)nc5c4)cc3n2)CC1 [US11547697, Compound 385]	> 10		> 10
CNc1nc2cc(-c3ccc4ncc(C(=O)N5CCOCC5)n4c3)ccc2o1 [US11547697, Compound 406]	> 10		> 10
CN1CC(n2cnc3ccc(-c4ccc5oc(N)nc5c4)cc3c2=O)C1 [US11547697, Compound 528]	> 10		> 10
